PubChem BioAssay (NCI)
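96-well plates; 48 h exposure; 5 concentrations. Endpoints by linear interpolation between flanking doses. Not reached: highest tested concentration assigned. At the GI50, growth is halved. TGI denotes the concentration required for complete inhibition of growth.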

Tests used:
Assay in all cases: growth of human tumour cells (NCI), 48 h
HT29 colon = tested on: HT29 colon
IGROV1 ovarian = tested on: IGROV1 ovarian
A498 renal = tested on: A498 renal
NCI-H522 lung = tested on: NCI-H522 lung
HOP-92 NSCLC = tested on: HOP-92 NSCLC
HCT-15 colon = tested on: HCT-15 colon
SN12C renal = tested on: SN12C renal
NCI-H460 lung = tested on: NCI-H460 lung
SF-539 CNS = tested on: SF-539 CNS
UACC-62 melanoma = tested on: UACC-62 melanoma

| Structure (SMILES) | TGI (HT29 colon) [µM] | TGI (IGROV1 ovarian) [µM] | TGI (A498 renal) [µM] | TGI (NCI-H522 lung) [µM] | TGI (HOP-92 NSCLC) [µM] | TGI (HCT-15 colon) [µM] | TGI (SN12C renal) [µM] | TGI (NCI-H460 lung) [µM] | TGI (SF-539 CNS) [µM] | TGI (UACC-62 melanoma) [µM] | GI50 (HT29 colon) [nM] | GI50 (IGROV1 ovarian) [nM] | GI50 (A498 renal) [nM] | GI50 (NCI-H522 lung) [nM] | GI50 (HOP-92 NSCLC) [nM] | GI50 (HCT-15 colon) [nM] | GI50 (SN12C renal) [nM] | GI50 (NCI-H460 lung) [nM] | GI50 (SF-539 CNS) [nM] | GI50 (UACC-62 melanoma) [nM] |
| --- | --- | --- | --- | --- | --- | --- | --- | --- | --- | --- | --- | --- | --- | --- | --- | --- | --- | --- | --- | --- |
| O=C(CCC(=O)Nc1cccc(C(F)(F)F)c1)CC(=O)c1ccc2ccccc2c1 | > 100 | > 100 | > 100 | > 100 | > 100 | > 100 | > 100 | > 100 | > 100 | > 100 |  |  |  |  |  |  |  |  |  |  |
| CC(=O)Nc1cc2cc(NS(=O)(=O)c3ccc(Cl)c(Cl)c3)ccc2oc1=O | > 100 | > 100 | 40.7 | 63.6 | 60.5 | > 100 | 64.8 | > 100 | 56.1 | 62.8 |  |  |  |  |  |  |  |  |  |  |
| O=C(N/C(=C\c1ccccc1O)c1nc2ccccc2[nH]1)c1ccccc1 | > 100 | > 100 | > 100 | > 100 | > 100 | > 100 | > 100 | > 100 | > 100 | > 100 |  |  |  |  |  |  |  |  |  |  |
| Clc1cccc(CNc2c3ccccc3nc3ccccc23)c1 | 10.2 | 5.46 | 2.67 | 4.89 | 3.82 | 4.6 | 11 | 4.2 | 3.32 | 3.98 | 1980 | 1910 | 1300 | 1880 | 1120 | 1880 | 2360 | 1950 | 1780 | 1870 |
| Cc1ccc(Cl)c(NS(=O)(=O)c2ccc(-c3cnc(C4CC4)o3)cc2)c1 | 16.2 | > 100 | 0.303 | 20.3 | 20.5 | 18.2 | > 74.9 | 20.4 | 1.54 | 34.8 | 51.7 | 129 | 28.6 | 56.6 | 2300 | 55 | 415 | 102 | 80.3 | 47.2 |
| C=C1C(=O)O[C@H]2[C@H]1CC/C(COC(=O)/C=C\C(=O)NCc1ccc(Cn3c(=O)sn(CCI)c3=O)cc1)=C\CC[C@@]1(C)O[C@@H]21 | 4.92 | 11.9 | 27 | 2.93 | 4.6 | 5.42 | 10.8 | 37.9 | 9.51 | 3.86 | 2260 | 3170 | 13900 | 1480 | 2050 | 2100 | 3150 | 15500 | 3360 | 1830 |
| Cn1c(=O)c(Oc2ccc(F)cc2F)cc2cnc(N[C@@H]3CCOC3)nc21 | > 25 | > 25 | > 25 | > 25 | > 25 | > 25 | > 25 | > 25 | > 25 | > 25 | > 25000 | > 25000 | > 20400 | > 25000 | 8690 | > 25000 | > 25000 | > 25000 | > 25000 | > 25000 |
| CCC(=O)N1C/C(=C/c2ccc(Br)cc2)C(=O)/C(=C/c2ccc(Br)cc2)C1 | 0.433 | 2.27 | 3.06 | 2.8 | 4.13 | 1.31 | 1.58 | 3.07 | 1.79 | 2.06 | 102 | 766 | 1430 | 1400 | 1690 | 295 | 424 | 827 | 706 | 724 |
